{
  "source": "paper PMC4738285",
  "about": "(Scientific Reports, 2016)",
  "key": {"[1]": {"test_system": "HeLa cells", "type": "cell-based, human"}, "[2]": {"biological_target": "T1, Hsc70 (Homo sapiens, UniProt P11142)", "T1 sequence (P11142 whole entry)": "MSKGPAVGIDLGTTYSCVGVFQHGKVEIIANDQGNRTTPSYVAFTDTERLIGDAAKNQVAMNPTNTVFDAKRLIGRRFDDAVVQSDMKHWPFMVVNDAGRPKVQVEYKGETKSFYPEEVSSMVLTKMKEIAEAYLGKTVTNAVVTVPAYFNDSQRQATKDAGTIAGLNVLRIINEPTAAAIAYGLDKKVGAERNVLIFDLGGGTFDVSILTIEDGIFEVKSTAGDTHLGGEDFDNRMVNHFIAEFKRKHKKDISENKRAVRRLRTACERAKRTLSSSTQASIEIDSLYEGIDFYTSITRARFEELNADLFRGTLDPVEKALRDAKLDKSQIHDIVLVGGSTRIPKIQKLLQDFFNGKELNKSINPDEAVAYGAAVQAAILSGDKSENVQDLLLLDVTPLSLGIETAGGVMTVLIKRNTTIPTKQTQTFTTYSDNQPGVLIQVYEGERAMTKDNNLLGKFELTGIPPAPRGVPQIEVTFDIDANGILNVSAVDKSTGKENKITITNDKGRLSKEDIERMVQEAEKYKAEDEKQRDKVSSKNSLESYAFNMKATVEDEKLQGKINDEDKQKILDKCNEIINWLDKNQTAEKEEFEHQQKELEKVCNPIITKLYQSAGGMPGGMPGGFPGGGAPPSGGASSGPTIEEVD", "test": "biochemical", "type": "biochemical", "set-up": "made in house"}, "[3]": {"biological_target": "T2, Hsp70 (Homo sapiens, UniProt P0DMV8)", "T2 sequence (P0DMV8 whole entry)": "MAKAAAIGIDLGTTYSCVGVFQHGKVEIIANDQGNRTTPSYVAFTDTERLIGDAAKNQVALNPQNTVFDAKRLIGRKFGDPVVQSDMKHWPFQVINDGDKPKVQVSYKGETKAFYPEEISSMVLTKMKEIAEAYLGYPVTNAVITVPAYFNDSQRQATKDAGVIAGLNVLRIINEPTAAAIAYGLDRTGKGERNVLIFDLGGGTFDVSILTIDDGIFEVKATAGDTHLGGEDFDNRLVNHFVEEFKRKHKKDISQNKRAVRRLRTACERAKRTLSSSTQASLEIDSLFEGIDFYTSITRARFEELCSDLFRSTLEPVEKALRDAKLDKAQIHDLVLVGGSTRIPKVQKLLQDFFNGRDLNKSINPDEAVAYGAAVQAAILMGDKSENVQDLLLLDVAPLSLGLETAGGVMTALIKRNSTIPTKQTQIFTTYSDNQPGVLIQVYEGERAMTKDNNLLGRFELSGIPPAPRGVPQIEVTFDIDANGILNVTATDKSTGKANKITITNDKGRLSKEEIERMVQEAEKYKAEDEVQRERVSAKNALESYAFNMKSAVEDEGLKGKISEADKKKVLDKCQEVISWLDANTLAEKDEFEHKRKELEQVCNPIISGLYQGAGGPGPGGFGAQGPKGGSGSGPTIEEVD", "test": "biochemical", "set-up": "made in house"}, "[4]": {"biological_target": "T2, Hsp70", "test": "biochemical"}, "[5]": {"biological_target": "T2, Hsp70", "type": "binding", "set-up": "made in house", "conditions": "HeLa cell lysate"}, "[6]": {"test_system": "HeLa cells", "type": "cell-based, human", "remark": "listed apart in the source"}, "[7]": {"biological_target": "T2, Hsp70", "type": "binding", "set-up": "made in house", "conditions": "500 nM Hsp70, 50 μM 1; five of six regions"}, "[8]": {"biological_target": "T2, Hsp70", "type": "biochemical", "set-up": "made in house", "conditions": "concentrations up to 200 μM; 0.5 μM Hsp70, 1 mM ATP"}, "[9]": {"test_system": "HeLa cells", "type": "cell-based, human", "remark": "listed apart in the source"}, "[10]": {"biological_target": "T2, Hsp70", "conditions": "ITC, 20 °C"}, "[11]": {"test_system": "SH-SY5Y", "test": "cells", "type": "cell-based", "conditions": "Homo sapiens, 48 h, read-out: EC50 value"}, "[12]": {"biological_target": "T1, Hsc70", "type": "binding", "set-up": "endogenous in cells; host or cells: HeLa cell lysate", "conditions": "HeLa cell lysate"}, "[13]": {"test_system": "C. perfringens iota toxin on Vero cells", "type": "cell-based, African green monkey"}, "[14]": {"test_system": "HeLa", "test": "cells", "type": "cell-based", "conditions": "Homo sapiens, 48 h, read-out: EC50 value"}, "[15]": {"test_system": "HeLa cells", "conditions": "human, 24 h"}, "[16]": {"test_system": "HeLa cells", "test": "cells", "type": "cell-based", "conditions": "Homo sapiens; for EC50: read-out: EC50 cell survival, clonogenic assay; for IC50: read-out: IC50 survival, clonogenic assay"}, "[17]": {"test_system": "HeLa cells", "type": "cell-based, human", "remark": "listed apart in the source"}, "[18]": {"test_system": "HT-29", "test": "cells", "type": "cell-based", "conditions": "Homo sapiens, HT-29, 48 h, read-out: EC50 value"}, "[19]": {"test_system": "HEK-293", "test": "cells", "type": "cell-based", "conditions": "Homo sapiens, HEK293, 48 h, read-out: EC50 value"}, "[20]": {"test_system": "Ia of C. perfringens iota toxin", "type": "biochemical, Clostridium perfringens"}, "[21]": {"biological_target": "Hsp70", "conditions": "read-out: dissociation constant; cited from earlier work"}, "[22]": {"test_system": "C. perfringens iota toxin on Vero cells", "type": "cell-based, African green monkey", "remark": "listed apart in the source"}, "[23]": {"test_system": "iota toxin receptor binding on Vero cells", "type": "cell-based, African green monkey", "conditions": "4 °C, 30 min"}},
  "data": [
    {"smiles": "[Br-].[Na+]", "note": "[NaBr]", "values": [
      {"measurement": "apoptosis of HeLa cells, salt with staurosporine", "setting": "[1]", "value": "do not affect"}
    ]},
    {"smiles": "c1cc[n+]2cc3ccc(N4CCCC4)cc3cc2c1", "note": "[Compound 2]", "values": [
      {"measurement": "IC50", "setting": "[2]", "value": "34 ± 3", "unit": "µM"},
      {"measurement": "IC50", "setting": "[3]", "value": "127 ± 7", "unit": "µM"}
    ]},
    {"smiles": "Nc1ccc2c[n+]3ccccc3cc2c1", "note": "[Compound 1]", "values": [
      {"measurement": "Kd", "setting": "[4]", "value": "5.6 ± 3.1", "unit": "µM"},
      {"measurement": "apoptosis induction by staurosporine", "setting": "[1]", "value": "enhanced apoptosis induction"},
      {"measurement": "cleavage of procaspases 3 and 7 in combination with staurosporine", "setting": "[1]", "value": "synergistic effect"},
      {"measurement": "procaspase cleavage, compound alone", "setting": "[1]", "value": "did not result in significant procaspase cleavage"},
      {"measurement": "Hsp70 bound to matrix-coupled 1", "setting": "[5]", "value": "detection of Hsp70"},
      {"measurement": "accumulation in G2/M phase", "setting": "[6]", "value": "did not accumulate in the G2/M phase"},
      {"measurement": "cell cycle phase distribution", "setting": "[6]", "value": "did not result in changes"},
      {"measurement": "cells remaining in G2/M", "setting": "[6]", "value": "> 20", "unit": "%"},
      {"measurement": "IC50", "setting": "[2]", "value": "363 ± 20", "unit": "µM"},
      {"measurement": "Inhibition of Hsc70 less efficient compared to Hsp70", "setting": "[2]; luciferase refolding", "value": 8, "unit": "fold"},
      {"measurement": "Hsp70 binding to p53-derived peptide regions in the presence of 1", "setting": "[7]", "value": "abolished"},
      {"measurement": "ATPase activity of Hsp70", "setting": "[8]", "value": "remained unaffected"},
      {"measurement": "cytoplasmic vacuolization after heat stress", "setting": "[9]", "value": "strong cytoplasmic vacuolization"},
      {"measurement": "localization of Hsp70 at 37 °C", "setting": "[9]", "value": "did not alter"},
      {"measurement": "localization of Hsp70 at 42 °C", "setting": "[9]", "value": "dramatic Hsp70 re-distribution into the whole nucleus"},
      {"measurement": "subcellular distribution of Hsp70 in thymidine- and nocodazole-treated cells", "setting": "[9]", "value": "did not change"},
      {"measurement": "stoichiometry N", "setting": "[10]", "value": 1.1},
      {"measurement": "TΔSITC", "setting": "[10]; pH 7.8", "value": 8.3, "unit": "kcal/mol"},
      {"measurement": "binding enthalpy ΔHITC", "setting": "[10]; pH 7.8", "value": "1.3 ± 0.3", "unit": "kcal/mol"},
      {"measurement": "ΔGITC", "setting": "[10]; pH 7.8", "value": -7.0, "unit": "kcal/mol"},
      {"measurement": "EC50", "setting": "[11]", "value": "58.1 ± 4.6", "unit": "µM"},
      {"measurement": "Hsc70 bound to matrix-coupled 1", "setting": "[12]", "value": "no detectable amount of Hsc70"},
      {"measurement": "toxin-induced cell-rounding", "setting": "[13]", "value": "significantly delayed"},
      {"measurement": "EC50", "setting": "[14]", "value": "19.5 ± 2.5", "unit": "µM"},
      {"measurement": "compound remaining intact in HeLa cell lysate", "setting": "[15]", "value": 90, "unit": "%"},
      {"measurement": "EC50", "setting": "[16]", "value": 11.2, "unit": "µM"},
      {"measurement": "IC50", "setting": "[16]", "value": 11.2, "unit": "µM"},
      {"measurement": "amount of Hsp70 in HeLa cells", "setting": "[17]", "value": "did not influence"},
      {"measurement": "IC50", "setting": "[3]", "value": "45 ± 4", "unit": "µM"},
      {"measurement": "EC50", "setting": "[18]", "value": "71.6 ± 34", "unit": "µM"},
      {"measurement": "EC50", "setting": "[19]", "value": "29.1 ± 1.1", "unit": "µM"}
    ]},
    {"smiles": "F[B-](F)(F)F.[Na+]", "note": "[NaBF4]", "values": [
      {"measurement": "apoptosis of HeLa cells, salt with staurosporine", "setting": "[1]", "value": "do not affect"}
    ]},
    {"smiles": "N#Cc1ccc(COC[C@H]2O[C@@H](n3c(NCc4ccc(Cl)c(Cl)c4)nc4c(N)ncnc43)[C@H](O)[C@@H]2O)cc1", "note": "[VER-155008]", "values": [
      {"measurement": "enzyme activity of Ia", "setting": "[20]", "value": "had no effect"},
      {"measurement": "intoxication of the cells with iota toxin", "setting": "[13]", "value": "inhibitory effect"},
      {"measurement": "Kd", "setting": "[21]", "value": 0.3, "unit": "µM"},
      {"measurement": "round cells after acidic pulse (translocation of Ia)", "setting": "[22]", "value": "significantly less round cells"},
      {"measurement": "binding of iota toxin to the cells", "setting": "[23]", "value": "had no effect"}
    ]},
    {"smiles": "CSc1ccc2c[n+]3ccccc3cc2c1", "note": "[Compound 3]", "values": [
      {"measurement": "cleavage of procaspases 3 and 7 in combination with staurosporine", "setting": "[1]", "value": "did not result in significant procaspase cleavage"},
      {"measurement": "procaspase cleavage, compound alone", "setting": "[1]", "value": "did not result in significant procaspase cleavage"},
      {"measurement": "IC50", "setting": "[2]", "value": "931 ± 47", "unit": "µM"},
      {"measurement": "localization of Hsp70 at 37 °C", "setting": "[9]", "value": "did not alter"},
      {"measurement": "localization of Hsp70 at 42 °C", "setting": "[9]", "value": "did not alter"},
      {"measurement": "EC50", "setting": "[11]", "value": "70 ± 10.5", "unit": "µM"},
      {"measurement": "intoxication of Vero cells with iota toxin", "setting": "[13]", "value": "no comparable inhibitory effect"},
      {"measurement": "EC50", "setting": "[14]", "value": "35.8 ± 12.4", "unit": "µM"},
      {"measurement": "compound remaining intact in HeLa cell lysate", "setting": "[15]", "value": 90, "unit": "%"},
      {"measurement": "EC50", "setting": "[16]", "value": 13.1, "unit": "µM"},
      {"measurement": "IC50", "setting": "[16]", "value": 13.1, "unit": "µM"},
      {"measurement": "IC50", "setting": "[3]", "value": "1050 ± 53", "unit": "µM"},
      {"measurement": "EC50", "setting": "[18]", "value": "115 ± 52.4", "unit": "µM"},
      {"measurement": "EC50", "setting": "[19]", "value": "22.6 ± 1.3", "unit": "µM"}
    ]},
    {"smiles": "C[C@@H]1C[C@H]2O[C@@H]2/C=C\\C=C\\C(=O)Cc2c(Cl)c(O)cc(O)c2C(=O)O1", "note": "[radicicol]", "values": [
      {"measurement": "enzyme activity of Ia", "setting": "[20]", "value": "had no effect"},
      {"measurement": "round cells after acidic pulse (translocation of Ia)", "setting": "[22]", "value": "significantly less round cells"},
      {"measurement": "binding of iota toxin to the cells", "setting": "[23]", "value": "had no effect"}
    ]}
  ]
}
